Entries after “also recorded” stand apart in the source; their conditions may differ.
What was measured:
K562 cells = assay: Terminal restriction fragment (TRF) Southern blot telomere length, K562 cells; assay type: cell-based, human; details: K562 cells
Experimental: (§1) Cell culture: K562 cells (ATCC) were grown in RPMI1 1640 (Gibco) media supplemented with 10% fetal bovine serum. 293T cells (ATCC) were grown in DMEM (Gibco) supplemented with 10% fetal bovine serum, and were subcultured using 0.05% trypsin (Gibco). iPSCs were derived, characterized and cultured as previously described. iPSCs were grown in Essential 8 Media (Life Technologies) supplemented with the ROCK inhibitor Y271632 (Stem Cell Technologies) at 10 μM on plates coated with hES qualitied Matrigel matrix (Corning) and were subcultured using Accutase (Stem Cell Technologies).
(§2) Terminal Restriction Fragment Length Analysis: genomic DNA was isolated from cells using the Invitrogen Purelink Genomic DNA mini kit (Invitrogen). 1-3 μg of gDNA was digested with RsaI and HinfI for 2-3 hrs at 37° C. and loaded onto a 0.6% agarose gel followed by Southern blotting using the Telotaggg Telomere Length Assay Kit (Roche). Quantification was performed using the WALTER webtool.

293T cells = assay: Terminal restriction fragment (TRF) Southern blot telomere length, 293T cells; assay type: cell-based, human
Experimental: as §1, §2

[1] = test system: pCHK1-S345 and pRPA32-S33; assay: Immunoblot of replication stress signaling in super-telomerase cells; assay type: cell-based, human; details: highest doses, 30 hours
[2] = test system: super-telomerase cells (TERC-null 293T cells transfected with TERT and TERC); assay: TRF Southern blot telomere synthesis in super-telomerase cells; assay type: cell-based, human; details: treatment for 30 hours
Experimental: as §2
dT supplementation increases levels of dTTP and can reduce dCTP levels, leading to replication stress at high doses. Because replication stress signaling has been implicated in telomerase biology we asked whether replication stress induction explained the telomere length increases seen with dT treatment. We first tested whether telomere elongation is a universal response to replication stress-inducing compounds. […] However, cytotoxicity limited our ability to apply higher doses of replication stress-inducing compounds for time periods long enough to study telomere length changes. […] Using this system, we next asked how high-dose treatment with replication stress-inducing agents such as aphidicolin, hydroxyurea, and the TYMS inhibitor 5FU influence telomere synthesis compared to dT.

[3] = at pH of about 7; cited from earlier work
[4] = co-administration with dT; cited from earlier work
[5] = test system: T-free super-telomerase expressing cells (293T TERC-null); assay: Slot blot of GGAAAG repeat content in cellular DNA; assay type: cell-based, human; details: 5FU (10 μM) or HU (500 μM)
Experimental: Slot blotting: slot blotting was performed as described with minor modifications. Briefly, DNA concentration was normalized to 20 ng/μl using a nanodrop spectrophotometer. 3.3 μl of DNA was added to 16.5 μl of denaturation solution (0.5 M NaOH, 1.5 M NaCl) and heated to 55° C. for 30 minutes. 495 μl of neutralization solution (0.5 M Tris-HCl, 1.5 M NaCl) was added to denatured DNA and 156 μl of this solution was added in triplicate to different slots on a Bio-Dot SF Apparatus (Bio-Rad) and blotted onto Hybond N+ Membrane (Cytivia). Membrane preparation and washing was performed as described. For samples with paired GGTTAG and GGAAAG slot blots, the above recipe was doubled, and 156 μl was loaded onto parallel membranes in triplicate on each membrane. After blotting, membranes were hybridized and detected as described above for TRF Southern blots using the probe indicated in the figure. Blots were analyzed using ImageJ. Statistical analysis was performed using Graphpad prism V9.1.0.

telomere length = assay: Telomere length with cytidine and uridine (FIG. 23); assay type: cell-based
[6] = 100 μM of the indicated deoxynucleoside(s) for 8 days
[7] = 100 μM of the indicated deoxynucleoside(s) for 9 days
[8] = 10 days, doses up to those maximally tolerated
[9] = baseline 16 μM dT, plus 100 μM additional dT or 1 mM dU, 10 days
[10] = 8 days, doses up to those maximally tolerated

Question: Which results are given for `Nc1nc2c(ncn2[C@H]2C[C@H](O)[C@@H](CO)O2)c(=O)[nH]1` [dG, deoxyguanosine, reference compound]?
Answer: telomere length (K562 cells; [6]): but not deoxyadenosine (dA) or deoxyguanosine (dG), rapidly and robustly increases telomere length; telomere length (293T cells; [7]): but not deoxyadenosine (dA) or deoxyguanosine (dG), rapidly and robustly increases telomere length

Question: With `C[C@@]1(CO)[C@H](O)CC[C@@]2(C)[C@H]1CC[C@H]1C[C@@H]3C[C@@]12CC[C@]3(O)CO` [aphidicolin, reference compound] as the molecule, how does the replication stress signaling [1] read?
Answer: induced similar levels of replication stress signaling

Question: And the “telomere repeat synthesis / telomere elongation by telomerase” value [2]?
Answer: drove detectable increases in telomere length, albeit to a lesser extent than dT

Question: What about the telomere length (293T cells; [8]) of the same molecule?
Answer: telomere elongation after 10 days

Question: With `Nc1nc2ncc(CNc3ccc(C(=O)N[C@@H](CCC(=O)O)C(=O)O)cc3)nc2c(=O)[nH]1` [folate, folic acid, reference compound] as the molecule, how does the telomere length (293T cells; folate supplementation up to 1 mM, 10 days) read?
Answer: did not yield telomere elongation

Question: What about the telomere length (293T cells; folate supplementation up to 1 mM, 10 days, listed as folic acid) of the same molecule?
Answer: but not folic acid supplementation promotes telomere elongation

Question: For `Nc1ccn([C@H]2C[C@H](O)[C@@H](CO)O2)c(=O)n1` [dC, 4-azmino-1-[(2R,4S,5R)-4-hydroxy-5-(hydroxymethyl)oxolan-2-yl]pyrimidin-2 (1H)-one], which water solubility [3] is on record?
Answer: about 870 mg/mL

Question: And the “toxicity caused by dT” value [4]?
Answer: reduce toxicity caused by dT; also recorded: reduces toxicity of dT and improves cell growth compared to dT alone

Question: Which water solubility [3] does the source give for `O=c1ccn([C@H]2C[C@H](O)[C@@H](CO)O2)c(=O)[nH]1` [dU, 1-((2R,4S,5R)-4-Hydroxy-5-(hydroxymethyl)tetrahydrofuran-2-yl)pyrimidine-2,4 (1H,3H)-dione] here?
Answer: about 5 mg/ml

Question: And the “telomere length with baseline of 16 μM dT” value (K562 cells; added dU, 10 days)?
Answer: increased telomere length

Question: And the “telomere lengthening in TYMS-knockout cells” value (K562 cells; [9])?
Answer: no longer able to promote telomere lengthening

Question: What about the “concentration giving telomere elongation to a degree similar to dT” value (293T cells; 10× the dT concentration) of the same molecule?
Answer: 1 mM

Question: And the “telomere length with baseline of 16 μM dT” value (293T cells; added dU, 10 days)?
Answer: increased telomere length

Question: What about the “telomere lengthening in TYMS-knockout cells” value (293T cells; [9]) of the same molecule?
Answer: no longer able to promote telomere lengthening

Question: What about the telomere length (293T cells; dU 1 mM, 10 days (FIG. 9)) of the same molecule?
Answer: elongate telomeres to a degree similar to dT

Question: And the telomere length (293T cells; dU 1 mM, 10 days (FIG. 9), listed as Deoxyuridine)?
Answer: promotes telomere elongation

Question: Which results are given for `NC(=O)NO` [hydroxyurea, reference compound]?
Answer: levels of GGAAAG repeats [5]: reduced levels of GGAAAG repeats; telomere length (K562 cells; [10]): No changes were found in telomere length; replication stress signaling [1]: induced similar levels of replication stress signaling; telomere repeat synthesis / telomere elongation by telomerase [2]: ablated telomere elongation by telomerase; telomere length (293T cells; [8]): No changes were found in telomere length; also recorded: did not change telomere length after 10 days

Question: With `O=c1[nH]cc(F)c(=O)[nH]1` [5FU, 5-fluorouracil, reference compound] as the molecule, how does the “levels of GGAAAG repeats” value [5] read?
Answer: reduced levels of GGAAAG repeats; also recorded: inhibited T-free telomerase activity

Question: What about the replication stress signaling [1] of the same molecule?
Answer: induced similar levels of replication stress signaling

Question: And the “telomere repeat synthesis / telomere elongation by telomerase” value [2]?
Answer: ablated telomere elongation by telomerase; also recorded: completely inhibited telomere elongation; also recorded: ablated telomere lengthening in super-telomerase cells

Question: For `O=C1NC(=NCc2cccs2)S/C1=C\c1ccc2ncccc2c1` [RO-3306, reference compound], which telomere length (K562 cells; [10]) is on record?
Answer: No changes were found in telomere length

Question: What about the telomere length (293T cells; [8]) of the same molecule?
Answer: No changes were found in telomere length

Question: With `Nc1ccn([C@@H]2O[C@H](CO)[C@@H](O)[C@H]2O)c(=O)n1` [cytidine, 4-amino-1-[(2R,3R,4S,5R)-3,4-dihydroxy-5-(hydroxymethyl)oxolan-2-yl]pyrimidin-2 (1H)-one] as the molecule, how does the “toxicity caused by dT” value [4] read?
Answer: reduce toxicity caused by dT

Question: And the telomere length (telomere length)?
Answer: increase telomere length

Question: Which telomere length (K562 cells; [6]) does the source give for `Nc1ncnc2c1ncn2[C@H]1C[C@H](O)[C@@H](CO)O1` [dA, deoxyadenosine, reference compound] here?
Answer: but not deoxyadenosine (dA) or deoxyguanosine (dG), rapidly and robustly increases telomere length

Question: What about the telomere length (293T cells; [7]) of the same molecule?
Answer: but not deoxyadenosine (dA) or deoxyguanosine (dG), rapidly and robustly increases telomere length

Question: Which telomere length (telomere length) does the source give for `O=c1ccn([C@@H]2O[C@H](CO)[C@@H](O)[C@H]2O)c(=O)[nH]1` [uridine, 1-[(2R,3R,4S,5R)-3,4-Dihydroxy-5-(hydroxymethyl)oxolan-2-yl]pyrimidine-2,4 (1H,3H)-dione] here?
Answer: increase telomere length

From US20260248833A1, “PYRIMIDINE NUCLEOSIDE TREATMENTS” (The Children`s Medical Center Corporation, priority 2022, published 2026)
